Experimental data from US20210145801A1, “THERAPY FOR PROTEIN MISFOLDING DISEASE” (WREN THERAPEUTICS LIMITED, priority 2018, published 2021).

Each molecule was assayed against T1, Aβ42 (Homo sapiens, UniProt P05067) (assay: ThT kinetic assay of Aβ42 aggregation (unseeded)). Conditions: 2 μM Aβ42; 5× drug:protein concentration.
T1 construct: made in house; host or cells: E. coli BL21 Gold (DE3)
Format: biochemical
Description: The recombinant Aβ(M1-42) peptide ([…]-SNKGAIIGLMVGGVVIA [SEQ ID NO: 1]), here called Aβ42, was expressed in the E. coli BL21 Gold (DE3) strain (Stratagene, Calif., U.S.A.) and purified as described previously with slight modifications. Briefly, the purification procedure involved sonication of E. coli cells, dissolution of inclusion bodies in 8 M urea, and ion exchange in batch mode on diethylaminoethyl cellulose resin and lyophylization. The lyophilized fractions were further purified using Superdex 75 HR 26/60 column (GE Healthcare, Buckinghamshire, U.K.) and eluates were analyzed using SDS-PAGE for the presence of the desired protein product. The fractions containing the recombinant protein were combined, frozen using liquid nitrogen, and lyophilized again.
Except for Netoglitazone, which was custom synthesised by GVK BIO, all small molecules were purchased with a purity greater than 99%. Small molecules were first solubilized in 100% DMSO to a concentration of 5 mM, and then diluted in the peptide solution to reach a final DMSO concentration of maximum 1-3%. We verified that the addition of DMSO in the reaction mixture has no effect on Aβ42 aggregation.
Solutions of monomeric peptides were prepared by dissolving the lyophilized Aβ42 peptide in 6 M GuHCl. Monomeric forms were purified from potential oligomeric species and salt using a Superdex 75 10/300 GL column (GE Healthcare) at a flowrate of 0.5 mL/min, and were eluted in 20 mM sodium phosphate buffer, pH 8 supplemented with 200 μM EDTA and 0.02% NaN3. The centre of the peak was collected, and the peptide concentration was determined from the absorbance of the integrated peak area using ε280=1490 L mol^−1 cm^−1. The obtained monomer was diluted with buffer to the desired concentration and supplemented with 20 μM Thioflavin T (ThT) from a 1 mM stock. All samples were prepared in low binding Eppendorf tubes on ice using careful pipetting to avoid introduction of air bubbles. Each sample was then pipetted into multiple wells of a 96-well half-area, low-binding, clear bottom and PEG coating plate (Corning 3881), 80 μL per well. Aβ42 kinetics have been performed in the absence or the presence of Netoglitazone, Mitoglitazone, Rosiglotazone, Rivoglitazone, Pioglitazone, Ciglitazone, Englitazone, Darglitazone, Troglitazone and Balaglitazone.
The time evolution of the total fibril mass concentration is described as a function only of the initial conditions and the rate constants of the system by the integrated rate law given by Eq. (54) in Cohen et al., J Chem Phys 135, 065106, 2011.
These are related to the rate of formation of new aggregates through primary pathways λ=√{square root over (2k+knm(0)^n^c)} and through secondary pathways κ=√{square root over (2k+k2m(0)^n^2^+1)}, where the initial concentration of soluble monomers is denoted by m(0), nc and n2 describe the dependencies of the primary and secondary pathways on the monomer concentration (nc=n2=2 for Aβ42), and kn, k+ and k2 are the rate constants of the primary nucleation, elongation and secondary nucleation, respectively (Cohen et al., Proc Natl Acad Sci USA, 110(24), 9758-63, 2013).
Inhibitors can interfere with the aggregation process by inhibiting one or more of the individual microscopic steps.

T1 sequence (P05067 671-713): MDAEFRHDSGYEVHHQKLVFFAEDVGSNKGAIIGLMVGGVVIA

Structure (SMILES)	Delay of Aβ42 aggregation
Cc1oc(-c2ccccc2)nc1CCC(=O)c1ccc(CC2SC(=O)NC2=O)cc1 (centres unmarked) [Darglitazone]	observed to delay Aβ42 aggregation
O=C1NC(=O)C(Cc2ccc3c(c2)CC[C@H](Cc2ccccc2)O3)S1 (some centres unmarked) [Englitazone]	significantly delayed aggregation
CCc1ccc(C(=O)COc2ccc(CC3SC(=O)NC3=O)cc2)nc1 (centres unmarked) [Mitoglitazone]	little to no delay of Aβ42 aggregation was observed
COc1ccc2nc(COc3ccc(CC4SC(=O)NC4=O)cc3)n(C)c2c1 (centres unmarked) [Rivoglitazone]	little to no delay of Aβ42 aggregation was observed
Cn1c(COc2ccc(CC3SC(=O)NC3=O)cc2)nc2ccccc2c1=O (centres unmarked) [Balaglitazone]	little to no delay of Aβ42 aggregation was observed
